Reference: ChEMBL document CHEMBL5108025, “New thiazole-based derivatives as EGFR/HER2 and DHFR inhibitors: Synthesis, molecular modeling simulations and anticancer activity” (Eur J Med Chem, 2022)

Experiments:
[1] = tested on: MCF7; assay: cells; settings: Homo sapiens, MCF7, 72 h
[2] = tested on: HepG2; assay: cells; settings: Homo sapiens, HepG2, 72 h
[3] = tested on: PC-3; assay: Antiproliferative activity against human PC-3 cells after 72 hrs by MTT assay; type: functional, cell-based; settings: PC-3, 72 h
[4] = tested on: HCT-116; assay: cells; settings: Homo sapiens, HCT-116, 72 h
Description: Antiproliferative activity against human HCT-116 cells after 72 hrs by MTT assay

[5] = tested on: HeLa; assay: Antiproliferative activity against human HeLa cells after 72 hrs by MTT assay; type: functional, cell-based

Row | Compound | IC50 [1] [µM] | IC50 [2] [µM] | IC50 [3] [µM] | IC50 [4] [µM] | IC50 [5] [µM]
1 | COc1ccc(NC(=S)Nc2nc(C(=O)NCCc3ccccc3)cs2)cc1 | 10.6 | 19.5 | 25.1 | 8.13 | 14.8
2 | COc1ccc(NC(=S)Nc2nc(C(=O)NCc3ccccc3)cs2)cc1 | 24.6 | 28.1 | 39.3 | 18.2 | 22.9
3 | CCOC(=O)c1csc2nc(CN3CCN(Cc4ccccc4)CC3)c(-c3ccc(Br)cc3)n12 | 51.4 | 47.3 | 56.4 | 37.2 | 29.5
4 | CCC(=O)NNC(=O)c1csc2nc(CN3CCOCC3)c(-c3ccc(C)cc3)n12 | 58.2 | 69.2 | 79.1 | 64.5 | 48.4
5 | CNC(=O)c1cc(Oc2ccc(NC(=O)Nc3ccc(Cl)c(C(F)(F)F)c3)cc2)ccn1 [SORAFENIB] | – | – | 11.5 | – | –
6 | COc1ccc(-c2c(CN3CCOCC3)nc3scc(C(=O)NNC(C)=O)n23)cc1 | 11.3 | 23.7 | 34.8 | 29.9 | 18.9
7 | CCC(=O)NNC(=O)c1csc2nc(CN3CCOCC3)c(-c3ccc(OC)cc3)n12 | 64.1 | 55.9 | 73.9 | 59.3 | 44.2
8 | CN(Cc1cnc2nc(N)nc(N)c2n1)c1ccc(C(=O)N[C@@H](CCC(=O)O)C(=O)O)cc1 [METHOTREXATE] | 25.3 | 21.9 | 28.8 | 9.25 | 13.7
9 | CC(=O)NNC(=O)c1csc2ncc(-c3ccc(C)cc3)n12 | 57.3 | 63.6 | 92.7 | 71.8 | 74.2
10 | COc1ccc(NC(=S)Nc2nc(C(=O)NCCCc3ccccc3)cs2)cc1 | 63.8 | 71.3 | 74.5 | 44.8 | 57.5
11 | CCCC(=O)NNC(=O)c1csc2ncc(-c3ccc(Br)cc3)n12 | 27.5 | 33.6 | 58.5 | 50.3 | 31.9
12 | CC(=O)NNC(=O)c1csc2nc(CN3CCOCC3)c(-c3ccc(Br)cc3)n12 | 19.1 | 14.1 | 29.3 | 22 | 13.6
13 | CCCC(=O)NNC(=O)c1csc2nc(CN3CCOCC3)c(-c3ccc(OC)cc3)n12 | 72.4 | 81.2 | 88.5 | 68.7 | 53.7
14 | O=C(NCc1ccccc1)c1csc(NC(=S)Nc2ccc(Cl)cc2)n1 | 56.5 | 40.3 | 51.3 | 62.1 | 76
15 | O=C(NCCc1ccccc1)c1csc(NC(=S)Nc2ccc(Cl)cc2)n1 | 17.2 | 11.8 | 33.8 | 29.7 | 30.4
16 | CCC(=O)NNC(=O)c1csc2ncc(-c3ccc(Br)cc3)n12 | 15 | 19.2 | 43.7 | 25.3 | 23.1
17 | O=C(NCCCc1ccccc1)c1csc(NC(=S)Nc2ccc(Cl)cc2)n1 | 45.1 | 53.1 | 42.4 | 36.6 | 32.2
18 | CCCC(=O)NNC(=O)c1csc2nc(CN3CCOCC3)c(-c3ccc(Br)cc3)n12 | 35.9 | 38.4 | 52.9 | 46.8 | 29.2

Row | Compound | IC50 [1] [µM] | IC50 [2] [µM] | IC50 [3] [µM] | IC50 [4] [µM] | IC50 [5] [µM]
19 | CCCC(=O)NNC(=O)c1csc2ncc(-c3ccc(OC)cc3)n12 | 32.8 | 38 | 66.4 | 59.1 | 43.3
20 | CCOC(=O)c1csc2nc(CN3CCOCC3)c(-c3ccc(C)cc3)n12 | 43.6 | 39 | 47.1 | 32.6 | 24.8
21 | CCC(=O)NNC(=O)c1csc2ncc(-c3ccc(OC)cc3)n12 | 53.2 | 45.8 | 79.8 | 64.3 | 56.2
22 | CCOC(=O)c1csc2nc(CN3CCN(C)CC3)c(-c3ccc(C)cc3)n12 | 58.3 | 53.6 | 65 | 61 | 43.9
23 | CCC(=O)NNC(=O)c1csc2nc(CN3CCOCC3)c(-c3ccc(Br)cc3)n12 | 25.4 | 31.2 | 42.7 | 34.1 | 27
24 | CCOC(=O)c1csc2nc(CN3CCN(C)CC3)c(-c3ccc(OC)cc3)n12 | 32.8 | 68.4 | 69.4 | 44.6 | 35.1
25 | CCCC(=O)NNC(=O)c1csc2ncc(-c3ccc(C)cc3)n12 | 41.7 | 26.8 | 53.5 | 34.5 | 45.6
26 | CCCC(=O)NNC(=O)c1csc2nc(CN3CCOCC3)c(-c3ccc(C)cc3)n12 | 89.3 | 92.4 | > 100 | 77.5 | 67.9
27 | COc1ccc(-c2c(CN3CCCCC3)nc3scc(C(=O)O)n23)cc1 | 62.9 | 75 | 73.1 | 84.6 | 47.4
28 | O=C(O)c1csc2nc(CN3CCCCC3)c(-c3ccc(Br)cc3)n12 | 87.5 | > 100 | > 100 | > 100 | 76.6
29 | COc1ccc(-c2cnc3scc(C(=O)NNC(C)=O)n23)cc1 | 8.36 | 11.8 | 28.3 | 17 | 17.9
30 | CC(=O)NNC(=O)c1csc2nc(CN3CCOCC3)c(-c3ccc(C)cc3)n12 | 50.8 | 43 | 61.3 | 54.6 | 35.3
31 | CCOC(=O)c1csc2nc(CN3CCN(Cc4ccccc4)CC3)c(-c3ccc(OC)cc3)n12 | 17.1 | 26.4 | 29.4 | 19.6 | 9.94
32 | CCOC(=O)c1csc2nc(CN3CCOCC3)c(-c3ccc(OC)cc3)n12 | 13.9 | 19.8 | 22.6 | 25.8 | 16.4
33 | CCOC(=O)c1csc2nc(CN3CCOCC3)c(-c3ccc(Br)cc3)n12 | 24.6 | 32.5 | 35.2 | 28.5 | 20.8
34 | CCOC(=O)c1csc2nc(CN3CCN(Cc4ccccc4)CC3)c(-c3ccc(C)cc3)n12 | 29.1 | 88.2 | > 100 | 47.8 | 38.8
35 | CCOC(=O)c1csc2nc(CN3CCN(C)CC3)c(-c3ccc(Br)cc3)n12 | 68.5 | 82.7 | 85 | 93.6 | 55.4
